This passage reports RP-LC retention time results from the METLIN SMRT retention time set (Domingo-Almenara et al. 2019).

SMILES strings stand for the structures.

A short description of the series: gradient 5% acetonitrile 3 min, to 50% in 2 min, to 85% in 15 min, held 3 min, 100 µL/min. The note with it: column: Zorbax Extend-C18 2.1 x 50 mm; eluents: water / acetonitrile, 0.1% formic acid. Put shortly:
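Over 3 months, pure standards in mixtures of ~100 molecules were run by HPLC coupled to a quadrupole time-of-flight mass spectrometer in positive and negative ionization mode. The column was a Zorbax Extend-C18 (2.1 × 50 mm, 1.8 μm) at 100 μL/min, eluted with water and acetonitrile each holding 0.1% formic acid, with 40 μL dead and 900 μL dwell volumes. Retention time was determined from adduct peaks chosen by software and checked manually.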
In turn, `CCn1nc(C)c2c(-c3ccccc3)cc(OC(C)C(=O)Nc3ccc4c(c3)OCO4)nc21` (stereo not given) yielded an RP-LC retention time of 1030 s.
To `O=C(CCc1ccccc1)Nc1c(-c2ccc(F)cc2)nc2ccccn12` belongs 687 s.
In the case of `O=C(Cn1cccc(-c2nc(-c3ccc(Cl)cc3)no2)c1=O)Nc1ccc(F)cc1` it was 956 s.
`CCCn1c(=O)c(C)nc2cc(-c3noc(-c4cccc(F)c4)n3)ccc21` gave an RP-LC retention time of 1210 s.
Take `O=C(Cn1cnc2ccccc21)N1CCN(Cc2nc(-c3ccc(F)cc3)cs2)CC1`: the RP-LC retention time stood at 586 s.
To `CC(=O)N1CCN(C(=O)[C@@]23CCCC[C@H]2N(CCC(C)C)C(=O)CC3)CC1` belongs 662 s.
`CCN(CC)S(=O)(=O)c1ccc2nc(N3CCN(Cc4ccc5c(c4)OCO5)CC3)cnc2c1` displayed an RP-LC retention time of 685 s.
As for `COC(=O)c1c(NCCc2c[nH]c3ccccc23)c2ccccc2[nH]c1=O`, the RP-LC retention time worked out at 744 s.
`COc1ccccc1N1CCN(c2nnc(SC(C)C)s2)CC1` showed an RP-LC retention time of 952 s.
With `O=C(c1ccc(S(=O)(=O)c2ccc(Br)cc2)nc1)N1CCN(c2ncccn2)CC1`, the RP-LC retention time came to 835 s.
In turn, `CC1=C(c2ccc(Cl)cc2)S(=O)(=O)N=C1N1CCC(C(=O)NCCN2CCOCC2)CC1` gave an RP-LC retention time of 592 s.
In turn, `O=C(Nc1cccn2cnnc12)c1ccccn1` had an RP-LC retention time of 652 s.
For `Cc1cc(=O)n(CC(=O)NCCc2ccc(Cl)cc2)c(N2CCOCC2)n1`, the RP-LC retention time was 701 s.
For the compound `O=C(NCCCn1ccnc1)C(=O)NC1CCCCC1`, the RP-LC retention time was determined as 545 s.
In turn, `Cc1nn(C(C)C(=O)NCCc2c[nH]c3ccccc23)c(=O)c2c(C)n(-c3ccccc3)nc12` (stereo not given) had an RP-LC retention time of 904 s.
To `Cc1ccc(CNC(=O)Cn2c(=O)c(=O)n(C)c3ncccc32)o1` belongs 656 s; to `CCOc1ccccc1CN1C[C@@H](CO)[C@H](c2ccncc2)C1`, 620 s; to `CCCCn1nc2ccc(S(=O)(=O)N3CCSCC3)cn2c1=O`, 847 s.
In the case of `CCN1CCN(C(=O)c2nnc(-c3ccc(S(=O)(=O)N4CCCC4)cc3)o2)CC1` it was 623 s; in that of `O=C(C(=O)N1CCc2ccccc2C1)c1c[nH]c2ccccc12`, 836 s.
In the case of `CC(C)NC(=O)c1ccc(OCC2CCN(C(=O)c3ccc(C(F)(F)F)cc3)CC2)cc1` it was 935 s; in that of `O=C1CC(c2ccc3c(c2)OCO3)c2c(c(C(=O)O)cn2-c2cccc(F)c2)N1` (stereo not given), 777 s; in that of `NC(=O)c1cc(N2CCCC2)nc2c(Cl)cccc12`, 607 s.
Compound `O=C(NC1CCN(c2cc(-c3ccccc3)[nH]n2)C1)c1cccc(F)c1` (stereo not given) had an RP-LC retention time of 717 s.
To `CC(C)(C)c1cccc(Nc2nc3ccncc3n(Cc3ccccc3)c2=O)c1` belongs 963 s; to `Cc1cc(-c2csc(S(=O)(=O)NCCCN3CCN(Cc4ccccc4)CC3)c2)on1`, 650 s.
To `CC1(C(=O)N2CCN(Cc3ccc4c(c3)OCO4)CC2)CCCCC(=O)N1` (stereo not given) belongs 576 s; to `COc1ccc(OC)c(NC(=O)N2c3ccccc3CC2c2nc(C3CC3)no2)c1` (stereo not given), 1110 s.
`O=C(NCc1cc(F)cc(F)c1)c1cn2c(n1)CCCC2`: the RP-LC retention time was 599 s.
In turn, `COCc1cc(=O)n(CC(=O)N2CCN(c3ccc(F)cc3)CC2)c(N2CCOCC2)n1` came in with an RP-LC retention time of 819 s.
In the case of `COc1cc(CNC(=O)CCc2ccc(C(F)(F)F)cc2)cc(OC)c1OC`, the RP-LC retention time worked out at 809 s.
For the compound `Cc1cc(N2CCCC2)n2nc(-c3ccccc3C)nc2n1`, the RP-LC retention time is 729 s.
In the case of `CCCCN(CCNC(=O)C1CCCN(c2ncnc3c2nc2n3CCCCC2)C1)Cc1ccco1` (stereo not given) it was 656 s; in that of `Fc1ccc(Cc2nc3nccc(-c4cccs4)n3n2)cc1`, 915 s; in that of `COc1cccc(N2CCN(c3ccnc(SCC(=O)Nc4ccc5c(c4)OCO5)n3)CC2)c1`, 728 s.
`CCCNC(=O)c1cc(-c2ccncc2)cn1Cc1ccc(C)cc1` registered an RP-LC retention time of 696 s.
In the case of `O=C(c1ccc(OCC2CCN(C(=O)c3ccoc3)CC2)cc1)N1CCOCC1` it was 697 s.
In the case of `COc1ccc(OC)c(NC(=O)CCc2c(-c3ccc(F)cc3)nc3ccccn23)c1` it was 665 s; in that of `O=C1N(C2CCN(S(=O)(=O)c3cccnc3)CC2)C(c2ccccc2)C12CCCC2` (stereo not given), 912 s; in that of `COCCC(=O)NC1CCN(c2ccc(C)c(C)c2)C1=O` (stereo not given), 688 s.
To `Cc1ccc2nc(NC(=O)CSc3nnc(CNC(=O)c4ccco4)o3)sc2c1` belongs 705 s; to `CC1CCN(S(=O)(=O)c2ccc3nn(Cc4cccc(Cl)c4)c(=O)n3c2)CC1`, 1070 s.
In the case of `CCOc1ccc(C(=O)NCC(=O)Nc2nc3ccccc3[nH]2)cc1`, the RP-LC retention time came to 648 s.
`CN1C(=O)C2(CCN(C(=O)CCc3ccccc3)C2)c2ccccc21` (stereo not given): the RP-LC retention time came out at 803 s.
`O=C(CSc1ccc(N2CCOCC2)nn1)Nc1ccc(F)cc1F` had an RP-LC retention time of 669 s.
To `Cc1ccc(S(=O)(=O)N2CCC(CCC(=O)NC3CCS(=O)(=O)C3)CC2)cc1` (stereo not given) belongs 740 s.
In the case of `CCOC(=O)c1sc2nc(C)cc(C)c2c1N(C(C)=O)C(C)=O` it was 860 s; in that of `COc1ccc(OC)c(NC(=O)C2CCN(S(=O)(=O)c3ccc4c(c3)sc(=O)n4C)CC2)c1`, 840 s.
In the case of `O=C(CN1C(=O)CCC1=O)Nc1ccc2c(c1)CN(C(=O)c1cccs1)CC2` it was 630 s; in that of `Cc1cc(C(F)F)n2nc(C(=O)Nc3ccc(Br)cc3)nc2n1`, 891 s.
Compound `COc1ccc(N2CCN(c3cc(SCC(=O)Nc4ccc(C)cc4)ncn3)CC2)cc1` gave an RP-LC retention time of 966 s.
Take `CC(C)(C)NC(=O)NC1CCN(C(=O)C2CCC2)C1` (stereo not given): the RP-LC retention time was found to be 636 s.
In the case of `O=S(=O)(Cc1ccc(-c2nc(-c3ccccc3)no2)o1)c1ccccc1` it was 1010 s; in that of `CN1CCn2cc(S(=O)(=O)Nc3cccc(C#N)c3)cc2C1=O`, 662 s; in that of `Cc1nn(C)c(C)c1CNC(=O)CN1C(=O)C2CCCCN2c2ccc(C(=O)N3CCCC3)cc21` (stereo not given), 654 s.
`Cc1ccc(-c2cn3c(n2)N(C(=O)c2nc4ncccn4n2)CCC3)cc1` returned an RP-LC retention time of 611 s.
In the case of `COc1ccc(NC(=O)N2CCN(c3ccc(=O)n(-c4ccc(C)cc4)n3)CC2)c(OC)c1`, the RP-LC retention time turned out to be 804 s.
To `Cc1ccc(-c2nc(-c3ccc4c(c3)ncn4CCN3CCCCC3)no2)s1` belongs 646 s; to `COc1ccc(C(CNC(=O)c2cc(=O)c3cc(Cl)ccc3o2)N(C)C)cc1` (stereo not given), 650 s; to `Cc1ccccc1CNC(=O)C1CCCN(C(=O)C2Sc3ccccc3NC2=O)C1` (stereo not given), 760 s.
The compound `COCCc1noc(C2Cc3ccccc3N2C(=O)NCC(C)C)n1` (stereo not given) came in with an RP-LC retention time of 859 s.
With `Cc1csc(-c2cc(S(=O)(=O)N3CCOCC3)cn2CC(=O)N2CCCCC2)n1`, the RP-LC retention time was 846 s.
Consider `COC(=O)c1cccc(C(=O)Nc2ccc(F)cc2C)n1`, for which the RP-LC retention time is 853 s.
To `CCC(NC(=O)c1cn2ccc(C)cc2n1)c1cccs1` (stereo not given) belongs 685 s; to `Cc1sc2ccn(CC(C)C)c(=O)c2c1C(=O)NCc1ccccc1F`, 994 s.
In turn, `Cc1ccn2cc(C(=O)NCc3ccc(N4CCOCC4)cc3)nc2c1` registered an RP-LC retention time of 591 s.
To `O=c1cc(Cn2nc3ccc(-c4ccc(Cl)cc4)nn3c2=O)nc2ccccn12` belongs 676 s.
To `CCC(C(=O)c1ccccc1)n1c(N2CCOCC2)nc2c1c(=O)n(C)c(=O)n2C` (stereo not given) belongs 806 s.
To `COC[C@@H]1CN(C(=O)c2cc(C)oc2C)C[C@H]1c1nc(C)no1` belongs 748 s; to `O=C(CN1CCc2[nH]c3c(F)c(Cl)ccc3c(=O)c2C1)Nc1cc(F)ccc1F`, 691 s; to `CC(=O)Nc1nc(-c2ccc(C)cc2C)cs1`, 808 s.
Compound `Cc1ccc(=O)n(CCNC(=O)C2CC(=O)N(c3ccc(C)c(C)c3)C2)n1` (stereo not given) registered an RP-LC retention time of 615 s.
In the case of `CCOC(=O)c1cnc2c(C(F)(F)F)cccc2c1NCCN(C)C` it was 614 s.
Take `COc1ccc2cccc(C(=N)c3ccc(C)c4c3CCC4)c2c1`: the RP-LC retention time came out at 747 s.
In turn, `CC(C)CNC(=O)NC(C(=O)N1CCc2ccccc21)c1ccccc1` (stereo not given) showed an RP-LC retention time of 864 s.
To `CCOc1ccc(CNC(=O)C2CCCN(c3nn4c(=O)c5c(nc4s3)CCCC5)C2)cc1OC` (stereo not given) belongs 737 s; to `CCOC(=O)c1[nH]c(C)c(CN(Cc2ccc(C)cc2)C(=O)COC)c1C`, 684 s.
To `O=C(NCc1ccc2c(c1)OCO2)C1CCN(C(=O)c2ncn3c2COC(c2ccccc2)C3)CC1` (stereo not given) belongs 752 s.
To `CCn1cc(CCNS(=O)(=O)c2ccc(C)cc2)c2cccnc21` belongs 786 s; to `COc1ccc(-c2noc(Cn3cnc4c(cnn4-c4ccc(F)cc4)c3=O)n2)cc1OC`, 930 s.
